US20070149465A1, “COMPOSITIONS AND METHODS FOR PREVENTION AND TREATMENT OF CACHEXIA” (priority 2005, published 2007)
Like-named read-outs stand apart in the source and are kept apart here.

What was measured:
[1] = for Formoterol solubility: 25° C.
Saline-inoculated rats = test: Rat AH130 experiments, saline-inoculated control rats given drug; type: in vivo, female Wistar rats
Method: (§1) Following the method of Busquets et al (Busquets S, et al: Cancer Res 64:6725-31, 2004), female Wistar rats were inoculated (Day 0) intra-peritoneally (i.p.) with 2×10^7 cells/animal of Yoshida AH-130 ascites hepatoma (AH) cells. Control animals were inoculated with an equivalent amount of sterile saline solution. […] The animals were sacrificed on Day 5. Upon sacrifice, wet weights of heart and gastrocnemius muscle were determined. Carcass (after gastrocnemius, heart, and ascites removal) weight was also determined upon sacrifice.
(§2) Treatment Group=Inoculation Type/Vehicle, or Treatment Group=Inoculation Type/F(x)R(y) where, Inoculation Type is either AH or Saline, F is formoterol fumarate, R is roxithromycin, and the parenthetical values are formoterol fumarate and roxithromycin doses (i.p. in mg/kg).

[2] = Osmolality of formoterol filtrate in citrate buffers; type: physicochemical; conditions: 25° C.
[3] = cited from earlier work; for estimated shelf-life: compositions of Banerjee et al.; for rate constant of decomposition: 60° C., buffer 5 mM, ionic strength 0.05
AH-inoculated rats = test: Rat AH130 Ascites Hepatoma Model of Cancer Cachexia, AH-inoculated rats; type: in vivo, female Wistar rats; conditions: for Carcass Weights Mean / Gastrocnemius Weights Mean / Heart Weights Mean: normalized to 100 g Day 5 Total Body Weight
Method: as §1, §2

[4] = Exp 2 Group 10, Saline, F 1, R 0 mg/kg i.p., Day 5, normalized to 100 g Day 5 Total Body Weight
[5] = Exp 1 Group 3, AH, F 1, R 0 mg/kg i.p., Day 5
[6] = Exp 2 Group 7, AH, F 1, R 0 mg/kg i.p., Day 5
[7] = Exp 3 Group 13, AH, F 1, R 0 mg/kg i.p., Day 5
[8] = Exp 4 Group 18, AH, F 1, R 0 mg/kg i.p., Day 5, sample weight normalized to 100 g Day 5 Total Body Weight

COc1ccc(C[C@@H](C)NC[C@H](O)c2ccc(O)c(NC=O)c2)cc1.COc1ccc(C[C@@H](C)NC[C@H](O)c2ccc(O)c(NC=O)c2)cc1.O=C(O)/C=C/C(=O)O [formoterol fumarate]
Formoterol solubility ([1]; 20 mM citrate, pH 4): 2710 µg/mL | Formoterol solubility ([1]; 20 mM citrate, pH 5): 2350 µg/mL | Formoterol solubility ([1]; 20 mM citrate, pH 6): 2470 µg/mL | Formoterol solubility ([1]; 20 mM citrate, pH 7): 2330 µg/mL | Formoterol solubility ([1]; 50 mM citrate, pH 4): 3690 µg/mL | Formoterol solubility ([1]; 50 mM citrate, pH 5): 2770 µg/mL | Formoterol solubility ([1]; 50 mM citrate, pH 6): 2780 µg/mL | Formoterol solubility ([1]; 50 mM citrate, pH 7): 2920 µg/mL | Formoterol solubility ([1]; 100 mM citrate, pH 4): 3010 µg/mL | Formoterol solubility ([1]; 100 mM citrate, pH 5): 2690 µg/mL | Formoterol solubility ([1]; 100 mM citrate, pH 6): 2870 µg/mL | Formoterol solubility ([1]; 100 mM citrate, pH 7): 2600 µg/mL | Formoterol solubility ([1]; 200 mM citrate, pH 4): 3690 µg/mL | Formoterol solubility ([1]; 200 mM citrate, pH 5): 2900 µg/mL | Formoterol solubility ([1]; 200 mM citrate, pH 6): 2720 µg/mL | Formoterol solubility ([1]; 200 mM citrate, pH 7): 2840 µg/mL | solubility ([1]; citrate buffer concentrations between 20 and 200 mM at pH 4 to pH 7): > 1000 µg/mL | Carcass Weights Mean (Saline-inoculated rats; [4]): 97.6 g | Gastrocnemius Weights Mean (Saline-inoculated rats; [4]): 0.613 g | Heart Weights Mean (Saline-inoculated rats; [4]): 0.410 g | gastrocnemius muscle weights compared with Saline/vehicle group (Saline-inoculated rats; Experiment 2, Saline/F(1)R(0) group): approximately the same | Formoterol Filtrate osmolality ([2]; 20 mM citrate, pH 4): 49 mOsm/kG | Formoterol Filtrate osmolality ([2]; 20 mM citrate, pH 5): 56 mOsm/kG | Formoterol Filtrate osmolality ([2]; 20 mM citrate, pH 6): 60 mOsm/kG | Formoterol Filtrate osmolality ([2]; 20 mM citrate, pH 7): 66 mOsm/kG | Formoterol Filtrate osmolality ([2]; 50 mM citrate, pH 4): 113 mOsm/kG | Formoterol Filtrate osmolality ([2]; 50 mM citrate, pH 5): 130 mOsm/kG | Formoterol Filtrate osmolality ([2]; 50 mM citrate, pH 6): 140 mOsm/kG | Formoterol Filtrate osmolality ([2]; 50 mM citrate, pH 7): 146 mOsm/kG | Formoterol Filtrate osmolality ([2]; 100 mM citrate, pH 4): 205 mOsm/kG | Formoterol Filtrate osmolality ([2]; 100 mM citrate, pH 5): 249 mOsm/kG | Formoterol Filtrate osmolality ([2]; 100 mM citrate, pH 6): 275 mOsm/kG | Formoterol Filtrate osmolality ([2]; 100 mM citrate, pH 7): 278 mOsm/kG | Formoterol Filtrate osmolality ([2]; 200 mM citrate, pH 4): 392 mOsm/kG | Formoterol Filtrate osmolality ([2]; 200 mM citrate, pH 5): 473 mOsm/kG | Formoterol Filtrate osmolality ([2]; 200 mM citrate, pH 6): 527 mOsm/kG | Formoterol Filtrate osmolality ([2]; 200 mM citrate, pH 7): 543 mOsm/kG | estimated shelf-life ([3]; 5° C.): about 6.2 years | estimated shelf-life ([3]; 25° C.): about 7.5 months | rate constant of decomposition ([3]; pH 3): approximately 0.62 day^1 | rate constant of decomposition ([3]; pH 4): ~0.11 day^1 | rate constant of decomposition ([3]; pH 5): ~0.044 day^1 | rate constant of decomposition ([3]; pH 7): ~0.55 day^1 | Carcass Weights Mean (AH-inoculated rats; [5]): 95.35 g | Gastrocnemius Weights Mean (AH-inoculated rats; [5]): 0.551 g | Heart Weights Mean (AH-inoculated rats; [5]): 0.337 g | Carcass Weights Mean (AH-inoculated rats; [6]): 89.7 g | Gastrocnemius Weights Mean (AH-inoculated rats; [6]): 0.499 g | Heart Weights Mean (AH-inoculated rats; [6]): 0.348 g | Carcass Weights Mean (AH-inoculated rats; [7]): 93.1 g | Gastrocnemius Weights Mean (AH-inoculated rats; [7]): 0.489 g | Heart Weights Mean (AH-inoculated rats; [7]): 0.376 g | Carcass Mean (AH-inoculated rats; [8]): 97.8 | Gastrocnemius Mean (AH-inoculated rats; [8]): 0.502 | Heart Mean (AH-inoculated rats; [8]): 0.367 | gastrocnemius muscle loss compared with AH/vehicle group (AH-inoculated rats; Experiment 1, AH/F(1)R(0) group): significantly less
